Measured values taken from PMC9693223 (Molecules, 2022).
Where “and” joins values, the source holds several entries; their conditions need not be identical. Identical values can stand only once. Like-named read-outs stand apart in the source and are kept apart here.

Legend:
[1] = biological target: T1, TcrNT2 (Trypanosoma cruzi, UniProt Q4DHG0); test: Transport of [^3H]-thymidine by TcrNT2 expressed in L. mexicana Cas9^ΔNT1 (Km, inhibition); type: cell-based; conditions: for ΔG° (Gibbs free energy of interaction): calculated from Km or Ki at 25 °C
T1 sequence (Q4DHG0 entry or part of it): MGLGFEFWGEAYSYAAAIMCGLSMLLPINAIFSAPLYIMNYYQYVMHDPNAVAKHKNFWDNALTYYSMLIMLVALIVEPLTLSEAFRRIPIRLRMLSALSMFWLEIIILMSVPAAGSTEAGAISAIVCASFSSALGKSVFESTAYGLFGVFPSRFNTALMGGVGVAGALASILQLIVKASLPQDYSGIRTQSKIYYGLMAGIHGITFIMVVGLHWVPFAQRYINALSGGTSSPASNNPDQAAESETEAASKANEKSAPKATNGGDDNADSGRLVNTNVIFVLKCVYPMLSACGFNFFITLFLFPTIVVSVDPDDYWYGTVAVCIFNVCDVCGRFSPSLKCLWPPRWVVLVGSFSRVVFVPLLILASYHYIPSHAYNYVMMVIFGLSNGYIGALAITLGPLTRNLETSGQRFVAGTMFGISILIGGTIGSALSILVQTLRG
Experimental: These values can be used to calculate the Gibbs free energy of interaction ΔG°, but these experiments cannot distinguish between the test compound being transported or merely binding to the transporter and inhibiting the transit of the [^3H]-thymidine.
Transport assays were conducted with radiolabeled nucleosides [methyl-^3H]-thymidine (20 Ci/mmol; PerkinElmer (Waltham, MA, USA)) and [2,8-^3H]-adenosine (40 Ci/mmol; American Radiolabeled Chemicals (ARC, St-Louis, MO, USA)). Cells were harvested from mid-log phase cultures by centrifugation and washed into an assay buffer (AB) as described, at a density of 1 × 10^8 cells mL^−1. Transport assays were then performed exactly as described previously, using an oil-stop protocol. Briefly, 100 µL of cell suspension (10^7 cells) was mixed with 100 µL of [^3H]-substrate at 2 × final concentration and incubated for a pre-set time prior to the addition of 800 µL of ice-cold AB containing a saturating concentration of unlabeled permeant (usually 1 or 2.5 mM) and immediate centrifugation through an oil layer to separate cells from extracellular radiolabel. The 100 µL of [^3H]-substrate could also contain unlabeled substrate or an inhibitor at 2 × concentration, as appropriate. Next, the microfuge tubes were flash frozen in liquid nitrogen; the tips with the cell pellets cut off and collected in scintillation tubes. Cells were solubilized by incubation in 2% SDS under gentle shaking on a rocking platform prior to the addition of scintillation fluid (Scintilogic U, Lablogic, Sheffield, UK). The tubes stored in the dark overnight before counting in a 300SL Hidex Scintillation Counter (Lablogic).
Michaelis-Menten constants (Km) were calculated by plotting transport rates of [^3H]-substrate against the concentration, using the Michaelis-Menten equation V0 = Vmax([substrate]/([substrate] + Km)) and non-linear regression in GraphPad Prism 8. Inhibition constants (Ki) were calculated using the Cheng-Prusoff equation: Ki = IC50/(1 + (L/Km)), where L represents the radiolabel concentration. The IC50 was obtained by a non-linear regression of the inhibition curve of transport rate versus inhibitor concentration, using an equation for a sigmoid curve with variable slope (GraphPad Prism 8). The Gibbs free energy ΔG° was obtained using the equation ΔG° = −RTln(Ki), in which R is the gas constant and T is the absolute temperature. As discussed previously, these equations apply to competitive rather than non-competitive inhibition. Given that only close analogues of the substrate were used as potential inhibitors and that Hill slopes were consistently close to −1, it is very likely that inhibition was indeed competitive.

[2] = test system: NT1 transport activity; design: method as in PMID 28453984; conditions: NT1 transport activity in L. mexicana; ref [36]; cited from earlier work
[3] = test system: L. mexicana Cas9^ΔNT1 promastigotes; test: Transport of [^3H]-thymidine by L. mexicana Cas9^ΔNT1 promastigotes; type: cell-based, Leishmania mexicana; conditions: 0.05 µM [^3H]-thymidine, Cas9^ΔNT1 cells, over 180 s
Experimental: It is well documented that the NT1 transport activity is responsible for the uptake of adenosine and of pyrimidine nucleosides in Leishmania spp.. […] We thus assessed the uptake of these two nucleosides in Cas9^ΔNT1. […] In contrast, the transport of 0.1 µM of [^3H]-adenosine by L. mexicana Cas9^ΔNT1 promastigotes was virtually abolished and became statistically identical to the uptake in the presence of 1 mM unlabeled adenosine (p > 0.05).
Figure 1 [^3H]-Adenosine and [^3H]-Thymidine transport by L. mexicana Cas9 and L. mexicana Cas9^ΔNT1. (A). Transport of 0.1 µM of [^3H]-adenosine by L. mexicana Cas9 and L. mexicana Cas9^ΔNT1 was measured over 20 s in the presence or absence of 1 mM unlabeled adenosine. (B). Transport of 0.05 μM of [^3H]-thymidine by L. mexicana Cas9 and L. mexicana Cas9^ΔNT1 was measured over 180 s in the presence or absence of 1 mM unlabeled thymidine, respectively. Symbols represent the average of triplicate determinations in a single representative experiment and error bars represent ± SEM.
Transport assays were conducted with radiolabeled nucleosides [methyl-^3H]-thymidine (20 Ci/mmol; PerkinElmer (Waltham, MA, USA)) and [2,8-^3H]-adenosine (40 Ci/mmol; American Radiolabeled Chemicals (ARC, St-Louis, MO, USA)). Cells were harvested from mid-log phase cultures by centrifugation and washed into an assay buffer (AB) as described, at a density of 1 × 10^8 cells mL^−1. […]

[4] = biological target: T1, TcrNT2; conditions: TcrNT2 expressed in T. brucei, cited from earlier work
[5] = test system: L. mexicana Cas9^ΔNT1 promastigotes; design: method as in de Almeida Fiuza et al. [41]; conditions: L. mexicana Cas9^ΔNT1 promastigotes; starred values; ref de Almeida Fiuza et al. [41]; read-out: EC50 (µM) AVG ± SEM, L. mexicana Cas9^ΔNT1; cited from earlier work
[6] = test system: L. mexicana Cas9 promastigotes; test: Alamar blue drug sensitivity assay, L. mexicana Cas9 promastigotes; type: cell-based, Leishmania mexicana; conditions: Leishmania mexicana, 120 h, 72 h + 48 h resazurin, at least 3 independent determinations, read-out: EC50 (µM) AVG ± SEM, Cas9
Text: We used L. mexicana promastigotes of the Cas9 strain developed by Beneke at al. to generate the ΔNT1 strain, and from there the Cas9^ΔNT1+TcrNT2 (see below); The original Cas9 strain was generously donated by Prof. Eva Gluenz (University of Bern, Switzerland). All strains in standard HOMEM (GIBCO, Life Technologies, Paisley, UK) supplemented with 10% heat-inactivated fetal bovine serum (FBS; PAA Laboratories, Linz, Austria) and 1% of a penicillin–streptomycin solution (10,000 U mL^−1 each; Life Technologies) at 25 °C, as described.
The Alamar blue assay (resazurin sodium salt) was used to determine the drug sensitivity of the L. mexicana promastigotes in vitro. The assay is based on the reduction of resazurin sodium salt (blue and non-fluorescent) to resorufin (pink color and fluorescent) by live cells. HOMEM medium with 10% FBS (100 μL) was added to all wells of a white 96-well plate apart from the first well. 200 μL of a known concentration of test compounds was diluted in HOMEM medium and placed in the first well. Compounds were tested in one plate and every compound was diluted over two rows (23 concentrations), leaving the last well of every dilution as a negative control having 100 μL HOMEM medium. Next, 100 μL of L. mexicana culture at a density of 2 × 10^6 cells mL^−1 was added into every well in the plate and incubated for 72 h at a temperature of 25 °C after which resazurin sodium salt (Sigma) (20 μL of a solution of 12.5 mg in 100 mL PBS) was added and the plate was incubated under the same conditions for a further 48 h. Fluorescence was measured in a FLUOstar OPTIMA plate reader (BMG Labtech, Germany), at a wavelength of 544 nm for excitation and 620 nm for emission. The EC50 values and fluorescence data were determined and plotted by the GraphPad Prism 8 Software using an equation for a sigmoid curve with variable slope. Pentamidine was used as positive control and every experiment was performed 3–4 times independently.

[7] = test system: intracellular T. cruzi amastigotes; conditions: T. cruzi in vitro; ref [16]; read-out: EC50 against T. cruzi in vitro; cited from earlier work
[8] = test system: L. mexicana Cas9^ΔNT1+TcrNT2 promastigotes; design: method as in de Almeida Fiuza et al. [41]; conditions: L. mexicana Cas9^ΔNT1+TcrNT2 promastigotes; starred values; ref de Almeida Fiuza et al. [41]; read-out: EC50 (µM) AVG ± SEM, L. mexicana Cas9^ΔNT1+TcrNT2; cited from earlier work
[9] = test system: L. mexicana Cas9 promastigotes; design: method as in de Almeida Fiuza et al. [41]; conditions: starred values, ref de Almeida Fiuza et al. [41], read-out: EC50 (µM) AVG ± SEM, Cas9; cited from earlier work
[10] = biological target: P1 transporter; conditions: T. brucei P1; ref [16],[17]; cited from earlier work
[11] = biological target: P2/TbAT1 aminopurine transporter; conditions: T. brucei P2; ref [16],[17]; cited from earlier work

In the case of `Cc1cn([C@H]2C[C@H](O)[C@@H](CO)O2)c(=O)[nH]c1=O` [thymidine], the “ΔG° (Gibbs free energy of interaction)” value [1] is listed as -8.96 kcal/mol, the Km [2] is listed as 11.2 ± 2.4 µM and the “rate of [^3H]-thymidine transport” value [3] is listed as 0.00004 ± 0.000006 pmol(10^7 cells)^−1 s^−1. For the same molecule, the Km ([4]; ref [30], read-out: Km of thymidine uptake by TcrNT2) was ~0.2 µM and 0.223 µM and 0.22 µM.
With `Nc1ncnc2c1ccn2[C@@H]1O[C@H](CO)[C@@H](O)[C@H]1O` [Tubercidin, tubercidin] the Ki [1] was 852 ± 2 µM, the “ΔG° (Gibbs free energy of interaction)” value [1] was -4.18 kcal/mol and the “δ(ΔG°) with respect to ΔG° of thymidine” value ([1]; change in ΔG° relative to thymidine) was -4.78 kcal/mol. For the same molecule, the EC50 [5] was 25.7 ± 0.94 µM, the EC50 [6] was 0.43 ± 0.15 µM and the EC50 [7] was 0.34 µM. The EC50 [8] was 0.82 ± 0.13 µM, the EC50 [9] was 1.02 ± 0.16 µM and the Ki ([4]; earlier characterization, ref Campagnaro et al. [30], read-out: Ki on thymidine transport by TcrNT2) was 700 ± 110 µM.
With `Nc1ncnc2c1c(Br)cn2[C@@H]1O[C@H](CO)[C@@H](O)[C@H]1O` [TH1003, 7-bromo-tubercidin] the Ki [1] was 784 ± 41 µM, the “ΔG° (Gibbs free energy of interaction)” value [1] was -4.73 kcal/mol and the EC50 [6] was 0.16 ± 0.018 µM. The Ki [10] was < 5 µM and the Ki [11] was < 5 µM.
In the case of `Nc1ncnc2c1c(-c1ccccn1)cn2[C@@H]1O[C@H](CO)[C@@H](O)[C@H]1O` [7-(2-pyridyl)-tubercidin], the Ki [10] is given as < 5 µM and the Ki [11] is given as < 5 µM.
